Laboratory results as given in BindingDB's records for doi:10.1021/np9704922 (University of Naples Federico II, 1998).

Experiment: Inhibition of human synovial secretory PLA2

CC1(C)CCC[C@]2(C)[C@H]3CC[C@@H]4[C@H](O)O[C@@H](C5=CC(=O)OC5O)C[C@H]4[C@]3(C)CC[C@@H]12 (stereo partly specified) [Petrosaspongiolide P]
IC50: 3.8 µM
